Measured values as given in patent US7737175B2, “Methods and compositions for regulating HDAC4 activity” (Duke University, priority 2007, dated 2010).

Legend:
[1] = target: T1, HDAC4 (Mus musculus, UniProt Q6NZM9); conditions: daily injection
[2] = target: T1, HDAC4; assay: in vivo siRNA knockdown in mouse tibialis muscle, denervation, RT-PCR of Dach2/MGN/nAChR; parameters: HDAC4 siRNA results in more than 80% reduction in HDAC4; from tissue; host or cells: mouse tibialis anterior muscle, in vivo; conditions: siRNA electroporated into tibialis, denervated 3 days
Experimental: (§1) Mouse Procedures. Mice were anaesthetized with a Ketamine/Xylazine mixture (25 mg/ml Ketamine, 1 mg/ml Xylazine in 0.9% NaCl; 100 ul used per mouse. Hair was removed from area surrounding muscle. For denervation, sciatic nerve was exposed and ˜[…] piece of nerve was cut and removed. Incision was sutured and mice were allowed to recover. For overexpression electroporation analysis, 25 ug GFP, HDAC4-GFP, or HDAC4-3SA-GFP was used for injection. For siRNA experiments, 500 pmol siRNA oligo was used for injection. DNA or siRNA were directly injected into TA muscles using cemented MicroSyringe (VWR). ECM 830 electroporator (BTX) was used for all electroporations. Tweezertrodes (Model 520) were coated with transmission gel and were placed outside the skin around the muscle belly and pulsed 5 times at 50V, 60 ms duration, with 200 ms interval time. Mice were allowed to recover in their cages. Stealth siRNA duplexed oligos are from Invitrogen. Sequences are; mouse HDAC4: 5′ […] 3′ (SEQ ID NO:3), mouse HDAC5: 5′ […] 3′ (SEQ ID NO:4).
RNA analysis. For RNA analysis, TA muscles were dounce homogenized in 1 ml Tri reagent (MRC) and incubated at 4° C. overnight. 200 ul chloroform was added, and after vigorous shaking, samples were centrifuged at 12000 rpm for 10 min. Top aqueous layer was added to 500 ul isopropanol, mixed well, and centrifuged at 12000 rpm for 10 min. RNA pellet was washed with 70% ethanol, air-dried, and resuspended in DEPC water for RT-PCR analysis. For northern blotting, 10 ug total RNA was run on a 1% formaldehyde RNA gel. Gel was transferred onto Hybond N+ membrane and probed using radiolabeled fragments of HDAC4 or Atrogin-1 cDNA generated from Prime-it kit II (Stratagene). Blots were exposed for 2 hr at −80° C. For RT-PCR analysis, total RNA was DNase treated using DNA-free kit (Ambion), and 1 ug RNA was used for cDNA synthesis reaction using iScript cDNA Synthesis Kit (Biorad). Samples were diluted 1:50 and 5 ul cDNA was used per RT-PCR reaction. Real-time quantitative PCR was performed using iQ SYBER Green Supermix on the iCycler™ iQ Detection System (Biorad). […]

[3] = target: T1, HDAC4; assay: muscle atrophy after surgical denervation of siRNA-electroporated tibialis anterior (fiber size, atrophy genes by RT-PCR); format: in vivo; parameters: HDAC4 siRNA results in more than 80% reduction in HDAC4; from tissue; host or cells: mouse tibialis anterior muscle, in vivo
Experimental: as §1
RNA analysis. For RNA analysis, TA muscles were dounce homogenized in 1 ml Tri reagent (MRC) and incubated at 4° C. overnight. 200 ul chloroform was added, and after vigorous shaking, samples were centrifuged at 12000 rpm for 10 min. Top aqueous layer was added to 500 ul isopropanol, mixed well, and centrifuged at 12000 rpm for 10 min. RNA pellet was washed with 70% ethanol, air-dried, and resuspended in DEPC water for RT-PCR analysis. For northern blotting, 10 ug total RNA was run on a 1% formaldehyde RNA gel. Gel was transferred onto Hybond N+ membrane and probed using radiolabeled fragments of HDAC4 or Atrogin-1 cDNA generated from Prime-it kit II (Stratagene). Blots were exposed for 2 hr at −80° C. For RT-PCR analysis, total RNA was DNase treated using DNA-free kit (Ambion), and 1 ug RNA was used for cDNA synthesis reaction using iScript cDNA Synthesis Kit (Biorad). Samples were diluted 1:50 and 5 ul cDNA was used per RT-PCR reaction. Real-time quantitative PCR was performed using iQ SYBER Green Supermix on the iCycler™ iQ Detection System (Biorad). Sample volume was 20 ul per reaction. Efficiency and specificity of primers were confirmed by standard PCR and DNA electrophoresis. RT-PCR Program on iCycler™ was 95° C. 15 sec, 60° C. 30 sec, 72° C. 30 sec. All real-time PCR values were normalized to either actin or 18S rRNA. RT-PCR primer sequences are as follows: G-actin: forward 5′-[…] 3′ (SEQ ID NO:5), reverse 5′ […] 3′ (SEQ ID NO:6); 18S: forward 5′ […] 3′ (SEQ ID NO:7), reverse 5′ […] 3′ (SEQ ID NO:8); Dach2: forward 5′-[…] 3′ (SEQ ID NO:9), reverse 5′ […] 3′ (SEQ ID NO:10); nAChRα: forward 5′ CGTCTGGTGGCAAAGCT 3′ (SEQ ID NO:11), reverse 5′-CCGCTCTCCATGAAGTT 3′ (SEQ ID NO:12); MGN: forward 5′-[…] […]
To establish a role for HDAC4 in muscle atrophy, scrambled control siRNA or HDAC4-specific siRNA were electroporated into tibialis anterior (TA) followed by denervation. […] The extent of muscle atrophy was then analyzed by measuring muscle fiber size and the induction of atrophy-specific genes, MuRF1 and atrogin 1, two E3 ligases essential for muscle atrophy. […]

[4] = target: T1, HDAC4; assay: PGC-1α and myoglobin expression in tibialis anterior electroporated with HDAC4-siRNA; format: in vivo; parameters: HDAC4 siRNA results in more than 80% reduction in HDAC4; from tissue; host or cells: mouse tibialis anterior muscle, in vivo; conditions: fast/glycolytic tibialis anterior muscle
Experimental: as §1
RNA analysis. For RNA analysis, TA muscles were dounce homogenized in 1 ml Tri reagent (MRC) and incubated at 4° C. overnight. 200 ul chloroform was added, and after vigorous shaking, samples were centrifuged at 12000 rpm for 10 min. […] Real-time quantitative PCR was performed using iQ SYBER Green Supermix on the iCycler™ iQ Detection System (Biorad). […]

T1 sequence (Q6NZM9 whole entry): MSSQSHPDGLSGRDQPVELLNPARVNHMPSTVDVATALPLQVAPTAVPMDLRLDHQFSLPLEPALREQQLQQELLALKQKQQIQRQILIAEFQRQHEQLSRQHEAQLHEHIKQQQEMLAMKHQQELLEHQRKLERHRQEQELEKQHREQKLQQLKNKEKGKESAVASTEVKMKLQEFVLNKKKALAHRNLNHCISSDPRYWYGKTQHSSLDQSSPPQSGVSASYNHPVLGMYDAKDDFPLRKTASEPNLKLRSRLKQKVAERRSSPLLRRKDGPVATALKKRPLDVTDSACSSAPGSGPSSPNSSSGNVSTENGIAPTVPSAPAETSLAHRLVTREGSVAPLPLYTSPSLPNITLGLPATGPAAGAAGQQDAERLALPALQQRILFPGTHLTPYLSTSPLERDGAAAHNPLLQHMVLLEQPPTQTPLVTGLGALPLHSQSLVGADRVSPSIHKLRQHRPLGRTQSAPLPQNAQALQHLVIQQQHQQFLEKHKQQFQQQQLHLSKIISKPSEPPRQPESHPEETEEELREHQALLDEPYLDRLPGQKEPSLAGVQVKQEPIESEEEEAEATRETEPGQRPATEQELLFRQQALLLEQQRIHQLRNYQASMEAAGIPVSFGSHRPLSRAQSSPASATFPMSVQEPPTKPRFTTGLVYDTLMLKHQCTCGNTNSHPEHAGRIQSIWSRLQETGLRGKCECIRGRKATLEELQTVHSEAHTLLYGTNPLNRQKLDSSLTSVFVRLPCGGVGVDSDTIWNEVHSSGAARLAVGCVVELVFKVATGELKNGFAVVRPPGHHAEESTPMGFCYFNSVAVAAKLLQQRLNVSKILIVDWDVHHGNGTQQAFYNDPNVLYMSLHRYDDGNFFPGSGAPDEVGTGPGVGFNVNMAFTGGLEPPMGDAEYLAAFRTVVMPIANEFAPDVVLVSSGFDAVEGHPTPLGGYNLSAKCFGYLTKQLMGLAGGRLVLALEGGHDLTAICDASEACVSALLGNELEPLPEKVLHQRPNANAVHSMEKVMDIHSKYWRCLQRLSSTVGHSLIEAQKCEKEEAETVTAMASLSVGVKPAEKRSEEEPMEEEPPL

| Substance | level of PGC-1α [1] | induction of MGN after denervation [2] | induction of nAChR after denervation [2] | repression of Dach2 that occurs during denervation ([2]; 7 days after electroporation) | atrogin 1 expression after denervation ([3]; RT-PCR) | induction of MuRF1 by denervation ([3]; RT-PCR) | atrophy (reduction in TA muscle size) after denervation ([3]; denervation for 12 days, versus control siRNA) | reduction in HDAC4 ([3]; siRNA electroporated into tibialis anterior) | size of individual fibers of denervated muscles ([3]; versus fibers that received control siRNA) | PGC-1α expression [4] | myoglobin expression [4] |
| --- | --- | --- | --- | --- | --- | --- | --- | --- | --- | --- | --- |
| Trichostatin A | increase |  |  |  |  |  |  |  |  |  |  |
| 5′ CACCGGAACCUGAACCACUGCAUUU 3′ (SEQ ID NO:3) [HDAC4 siRNA] |  | dramatically reduced | dramatically reduced | significantly alleviates | modestly affected | significantly inhibited | largely prevented | more than 80% | much larger | elevation | elevation |
